Measurements as given in patent US12559750B2, “Methods and compositions for treatment of polycystic kidney disease” (Regulus Therapeutics Inc., priority 2021, dated 2026).
e = 2'-O-(2-methoxyethyl) (MOE); k = constrained ethyl (cEt); d = 2'-deoxy (DNA); m = 2'-O-methyl; f = 2'-fluoro

Molecular target: AMPA-R
Test: [3H]AMPA radioligand binding assay on rat brain synaptic membranes;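 also: competition binding in which test compounds at rising concentrations displace [3H]AMPA from AMPA-R on rat brain synaptic membranes, with reduced bound radioligand as read-out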
Details: for % Inhibition @ Concentration 100 uM: Table 8 (3′-terminal nucleobase/sugar variants); for % Inhibition @ Concentration 0.1 uM: Table 8, 0.1 uM; for % Inhibition @ Concentration 1 uM: Table 8, 1 uM; for % Inhibition @ Concentration 10 uM: Table 8, 10 uM
Experimental: The activity of anti-miR-17 compounds was evaluated in a radioligand binding assay which measured the binding of the [^3H] AMPA ligand to the AMPA-R present on rat brain synaptic membranes, in the presence of increasing concentrations of anti-miR-17 compound, anti-miR-17 compounds with affinity for the AMPA-R will bind to and compete with the binding of the [^3H] AMPA ligand.
5.0 nM of the ligand [^3H] AMPA, 1.0 mM of the non-specific ligand L-Glutamic acid, and anti-miR compound at uM concentrations were incubated with synaptic membranes prepared from Wistar rat cerebral cortex for 90 minutes.
The compounds were tested in the radioligand binding assay described herein, to determine the ability of the anti-miR-17 compounds to and compete with the binding of the [3H] AMPA ligand.

## ASGSCMAFCFUFUMUSDM [RG-NG-1037]
Table 8
  IC50: ≥ 100 µM
  % Inhibition @ Concentration 100 uM: 10.7%
  % Inhibition @ Concentration 0.1 uM: 11.1%
  % Inhibition @ Concentration 1 uM: 9.2%
  % Inhibition @ Concentration 10 uM: 2.4%

## ASGSCMAFCFUFUMTEGE [RG-NG-1024]
Experiment #3
  IC50: > 100 µM
Experiment #3, 0.1 uM
  % Inhibition @ 0.1 uM: −17%
Experiment #3, 1 uM
  % Inhibition @ 1 uM: −4.7%
Experiment #3, 10 uM
  % Inhibition @ 10 uM: 6.5%
Experiment #3, 100 uM
  % Inhibition @ 100 uM: 35.2%

## ASGSCSASCSUSUSUS [RG-NG-1002]
Experiment #1
  IC50: > 100 µM
Experiment #1, 0.1 uM
  % Inhibition @ 0.1 uM: 0%
Experiment #1, 1 uM
  % Inhibition @ 1 uM: −2.0%
Experiment #1, 10 uM
  % Inhibition @ 10 uM: −16.9%
Experiment #1, 100 uM
  % Inhibition @ 100 uM: 24.0%
Experiment #2
  IC50: > 100 µM
Experiment #2, 0.1 uM
  % Inhibition @ 0.1 uM: −5.5%
Experiment #2, 1 uM
  % Inhibition @ 1 uM: 4.6%
Experiment #2, 10 uM
  % Inhibition @ 10 uM: −2.1%
Experiment #2, 100 uM
  % Inhibition @ 100 uM: 24.6%

## ASGSCMAFCFUFUMUSED [RG-NG-1039]
  % Inhibition @ Concentration 100 uM: 30.2%
  % Inhibition @ Concentration 0.1 uM: 27.3%
  % Inhibition @ Concentration 1 uM: 27%
  % Inhibition @ Concentration 10 uM: 35.8%

## ASGSCMAFCFUFUMUSIM [RG-NG-1035]
Table 8
  IC50: 0.76 µM
  % Inhibition @ Concentration 100 uM: 98.5%
  % Inhibition @ Concentration 0.1 uM: 27.2%
  % Inhibition @ Concentration 1 uM: 46.3%
  % Inhibition @ Concentration 10 uM: 91.3%

## ASGSCMAFCFUFUMUSGD [RG-NG-1033]
Table 8
  IC50: 0.13 µM
  % Inhibition @ Concentration 100 uM: 97.3%
  % Inhibition @ Concentration 0.1 uM: 44.9%
  % Inhibition @ Concentration 1 uM: 80.9%
  % Inhibition @ Concentration 10 uM: 96.5%

## CETEGSCEAECETEGSTEADASGSCMAFCFUFUMUSGS (CTGCACTGTAAGCACUUUG; sugars from the 5' end eekeeeekedkkmfffmkk, backbone and methylation of C not given here) [RG-NG-1040]
Table 8
  IC50: 28.6 µM
  % Inhibition @ Concentration 100 uM: 64.1%
  % Inhibition @ Concentration 0.1 uM: 10.4%
  % Inhibition @ Concentration 1 uM: 14.4%
  % Inhibition @ Concentration 10 uM: 38.9%

## ASASGSCMAFCFUFUMUS [RG-NG-1013]
Experiment #2
  IC50: > 100 µM
Experiment #2, 0.1 uM
  % Inhibition @ 0.1 uM: −3.8%
Experiment #2, 1 uM
  % Inhibition @ 1 uM: −5.6%
Experiment #2, 10 uM
  % Inhibition @ 10 uM: 3.7%
Experiment #2, 100 uM
  % Inhibition @ 100 uM: 37.2%

## AFGSCMAFCFUFUMUSGE [RG-NG-1023]
Experiment #3
  IC50: 3.12 µM
Experiment #3, 0.1 uM
  % Inhibition @ 0.1 uM: 3.1%
Experiment #3, 1 uM
  % Inhibition @ 1 uM: 25.6%
Experiment #3, 10 uM
  % Inhibition @ 10 uM: 75.2%
Experiment #3, 100 uM
  % Inhibition @ 100 uM: 95.3%

## AMGLCLALCLUMTLUCM [RG-NG-1029]
Experiment #2
  IC50: > 100 µM
Experiment #2, 0.1 uM
  % Inhibition @ 0.1 uM: 0.9%
Experiment #2, 1 uM
  % Inhibition @ 1 uM: 15.9%
Experiment #2, 10 uM
  % Inhibition @ 10 uM: 7%
Experiment #2, 100 uM
  % Inhibition @ 100 uM: 38.4%

## TEAASGSCMAFCFUFUMUSCS (TAAGCACUUUC; 2'-MOE at 1, cEt at 3, 4, 10, 11, 2'-O-methyl at 5, 9, 2'-fluoro at 6, 7, 8, other sugars and backbone not given here) [RG-NG-1021]
Experiment #3
  IC50: > 100 µM
Experiment #3, 0.1 uM
  % Inhibition @ 0.1 uM: −2%
Experiment #3, 1 uM
  % Inhibition @ 1 uM: −10.9%
Experiment #3, 10 uM
  % Inhibition @ 10 uM: −11.5%
Experiment #3, 100 uM
  % Inhibition @ 100 uM: −1.5%

## ASCSTGSUSAASGSCMAFCFUFUMUSCS (ACTGUAAGCACUUUC; cEt at 1, 2, 4, 5, 7, 8, 14, 15, 2'-O-methyl at 9, 13, 2'-fluoro at 10, 11, 12, other sugars and backbone not given here) [RG-NG-1019]
Experiment #3
  IC50: > 100 µM
Experiment #3, 0.1 uM
  % Inhibition @ 0.1 uM: 12.9%
Experiment #3, 1 uM
  % Inhibition @ 1 uM: 17.2%
Experiment #3, 10 uM
  % Inhibition @ 10 uM: 15.6%
Experiment #3, 100 uM
  % Inhibition @ 100 uM: 21%

## AEGECMAFCFUFUMUSGS [RG-NG-1010]
Experiment #2
  IC50: 3.44 µM
Experiment #2, 0.1 uM
  % Inhibition @ 0.1 uM: 0.7%
Experiment #2, 1 uM
  % Inhibition @ 1 uM: 31.3%
Experiment #2, 10 uM
  % Inhibition @ 10 uM: 70.1%
Experiment #2, 100 uM
  % Inhibition @ 100 uM: 86.4%

## ASGSCMAFCFUFUMUSNM [RG-NG-1036]
Table 8
  IC50: 18.6 µM
  % Inhibition @ Concentration 100 uM: 78.1%
  % Inhibition @ Concentration 0.1 uM: 19.2%
  % Inhibition @ Concentration 1 uM: 11.3%
  % Inhibition @ Concentration 10 uM: 36.2%

## ASGSCMAFCFUFUMUSAM [RG-NG-1038]
Table 8
  IC50: 8.23 µM
  % Inhibition @ Concentration 100 uM: 81.3%
  % Inhibition @ Concentration 0.1 uM: 17.9%
  % Inhibition @ Concentration 1 uM: 25.4%
  % Inhibition @ Concentration 10 uM: 47.4%

## ASGSCSALCFUFUMUSCS [RG-NG-1028]
Experiment #2
  IC50: > 100 µM
Experiment #2, 0.1 uM
  % Inhibition @ 0.1 uM: 15.7%
Experiment #2, 1 uM
  % Inhibition @ 1 uM: 2.1%
Experiment #2, 10 uM
  % Inhibition @ 10 uM: 2%
Experiment #2, 100 uM
  % Inhibition @ 100 uM: 2.7%

## AEGECMAFCFUFUMTEGE [RG-NG-1009]
Experiment #2
  IC50: > 100 µM
Experiment #2, 0.1 uM
  % Inhibition @ 0.1 uM: −11.8%
Experiment #2, 1 uM
  % Inhibition @ 1 uM: 2.7%
Experiment #2, 10 uM
  % Inhibition @ 10 uM: 13%
Experiment #2, 100 uM
  % Inhibition @ 100 uM: 32.6%
